Values of other authors, collected in EP0517160B1, “Extended-release ophthalmic preparations” (INVERNI DELLA BEFFA S.P.A., priority 1991, dated 1992).

## C=CC1(C)CC(=O)C2(O)C(C)(O1)C(OC(C)=O)C(O)C1C(C)(C)CCC(O)C12C (stereo not drawn) [forskoline, 7β-acetoxy-8,13-epoxy-1α,6β,9α-trihydroxy-labd-14-en-11-one]
Poloxamer 407 25% w/v in water, at 5°C
  maximum of forskoline that dissolves: 0.12%
water
  solubility in water (in words): pratically insoluble in water
